The numbers were not newly measured in patent US20040234631A1, “Composition comprising soy and use thereof in the provention and/or treatment of various diseases” (priority 2001, published 2004), which cites them from elsewhere.

For one data set, the system named is blood vessels. Particulars: very low concentration.
For the next data set, the system named is estrogenic effect. Particulars: in vitro, reported by Knight.

Consider “1-alkyl-2-acetyl analog of phosphatidyl choline [platelet-activating factor]”, for which, in the data set on blood vessels, the “concentration causing dilation of blood vessels” value was 0.1 nM.
`O=c1c(-c2ccc(O)cc2)coc2cc(O)ccc12` [daidzein]: the “relative estrogenic potency (estradiol = 100)” value in the data set on estrogenic effect is recorded as 0.013.
